Experimental findings from patent US20260125654A1, “Method for Producing a Three-Dimensional Human Multiple-Myeloma Model” (Etablissement Français du Sang, priority 2022, published 2026) are described below.

This experiment has as its system plasma cells in MM spheroids. In words: Viability of plasma cells in 3D MM spheroids treated with melphalan, flow cytometry (CD38/CD138/DAPI). It is filed as cell-based, human. Particulars: for viability at 10 µM: Homo sapiens, 10 μM melphalan. The method, then: Following a total bone marrow sample at diagnosis in patients with multiple myeloma (MM), MM plasma cells are separated and then counted in a Malassez cell. The cells were then used freshly for cocultures or were frozen in CRYOSTOR. The MM total marrow cells coming from another patient were seeded according to the initial number thereof and the cells were incubated at a temperature of 37° C. and under an atmosphere with 5% carbon dioxide for about 2 weeks. Once confluence was reached, mesenchymal stem/stromal cells (MSCs), endothelial cells and endothelial progenitors were treated with trypsin and counted.
The MSC cells, the endothelial cells and the endothelial progenitors treated with trypsin and the fresh or thawed plasmocytes in a ratio of 1 MSC per 2 plasmocytes were suspended on ULA (Ultra-Low adherence) plates in 50 μL of RPMI medium (10% FCS, 1% PS). The cells were then incubated at a temperature of 37° C. and an atmosphere with 5% carbon dioxide with stirring. 150 μL of RPMI medium were added after incubation for 24 h and the medium was renewed 2 times per week, removing 100 μL of supernatant.
A treatment with […] melphalan was added to the spheroid culture medium 48 h after the formation thereof and the culture was continued for 14 days. The selection method was supplemented by a control situation, without the presence of a drug candidate. Part of the cultures was stopped after 7 (D+7) and 11 (D+11) days to analyze the viability of the plasma cells, whereas the rest of the cultures was stopped after 14 days of culture (D+14). Spheroid cells were mechanically dissociated at 1400 rpm with AccuMax® and then transferred into a tube suitable for flow cytometry and washed with PBS and labeled with the CD38 FITC and CD138 AF700 specific antibodies in MACS buffer. The cells were then incubated at 4° C. for 30 minutes, washed and resuspended in a MACS buffer medium and filtered at 70 μm, and finally labeled with the viability marker DAPI before passing through flow cytometry.

Each structure is given as a SMILES string. A value given as a limit tells only on which side of the number the result lay.

Usually viability stands for a read-out of living cells in per cent, often relative to untreated cells. Low values mean a greater loss of cells, high ones better survival. With `N[C@@H](Cc1ccc(N(CCCl)CCCl)cc1)C(=O)O` [melphalan], the viability at 10 µM was 5% (D+7), less than 5% (D+11) and less than 10% (D+14). The “response to treatment of plasma cells within spheroids” value (melphalan 10 μM) is on record as “strong response”.
